# According to US8865935B2, “Purification methods for betulonic acid and Boc-lysinated betulonic acid, and organic synthesis of betulonic acid amides with piperazine derivatives” (priority 2011, dated 2014):
# Assays:
# [1] = tested on: Ochrobactrum intermedium KACC 11952T; test: antibacterial test, paper disc diffusion method; format: cell-based; conditions: paper disc (diameter 8 mm) wetted with 60 μL of 1 mg/mL sample in DMSO on agar plate, test repeated three times
# Procedure: (§1) An antibacterial test was carried out using the above-mentioned paper disc diffusion method. Betulonic acid amide was dissolved in DMSO to make a sample having a concentration of 1 mg/mL. A filter paper (diameter: 8 mm, manufactured by Advantec, Toyo Roshi Kaisha, Japan) wetted with 60 μL of the sample was attached to an agar plate, and then a circumference, around which bacteria were not cultivated, was measured. DMSO was used as a negative control, and gentamicin was used as a positive control. The antibacterial test was repeatedly carried out three times.
# [2] = tested on: Stenotrophomonas nitritireducens KACC 10891T; test: antibacterial test, paper disc diffusion method; format: cell-based; conditions: paper disc (diameter 8 mm) wetted with 60 μL of 1 mg/mL sample in DMSO on agar plate; test repeated three times
# Procedure: as §1
# [3] = tested on: Stenotrophomonas maltophilia KCTC 1773T; test: antibacterial test, paper disc diffusion method; format: cell-based; conditions: for Antibacterial zone of inhibition (mm) S. maltophila: paper disc (diameter 8 mm) wetted with 60 μL of 1 mg/mL sample in DMSO on agar plate, test repeated three times
# Procedure: as §1
# [4] = tested on: Ochrobactrum anthropi KCTC 22833T; test: antibacterial test, paper disc diffusion method; format: cell-based; conditions: paper disc (diameter 8 mm) wetted with 60 μL of 1 mg/mL sample in DMSO on agar plate, test repeated three times
# Procedure: as §1
# [5] = tested on: four kinds of bacteria; test: antibacterial test, paper disc diffusion method, all strains; format: cell-based; conditions: from Table 3, 1 mg/mL sample
# Procedure: An antibacterial test was carried out using the above-mentioned paper disc diffusion method. Betulonic acid amide was dissolved in DMSO to make a sample having a concentration of 1 mg/mL. A filter paper (diameter: 8 mm, manufactured by Advantec, Toyo Roshi Kaisha, Japan) wetted with 60 μL of the sample was attached to an agar plate, and then a circumference, around which bacteria were not cultivated, was measured. DMSO was used as a negative control, and gentamicin was used as a positive control. The antibacterial test was repeatedly carried out three times. Ochrobactrum anthropi KCTC 22833T and Stenotrophomonas maltophilia KCTC 1773T used in the antibacterial test were purchased from Korean Collection for Type Culture (KCTC), and Ochrobactrum intermedium KACC 11952T and Stenotrophomonas nitritireducens KACC 10891T used in the antibacterial test were purchased from Korean Agricultural Culture Collection (KACC). The diameters of clear circular zones of samples 2 to 7 of FIG. 1 were measured by a paper disc diffusion method, and compared to that of gentamicin. […] Particularly, it can be ascertained that the activity of sample 2 (4-(3′,4′-dichlorophenylpiperazin-1-yl) amide betulonic acid) and the activity of sample 7 (4-(4′-trifluoromethylphenylpiperazin-1-yl) amide betulonic acid) are highest.
Molecule,Antibacterial zone of inhibition (mm) O. intermedium [1],Antibacterial zone of inhibition (mm) S. nitritireducens [2],Antibacterial zone of inhibition (mm) S. maltophila [3],Antibacterial zone of inhibition (mm) O. anthropi [4],further results
4-(4′-trifluoromethylphenylpiperazine-1-yl) amide betulonic acid [Compound 6 of FIG. 1],14 mm,16 mm,14 mm,15 mm,
"C=C(C)[C@@H]1CC[C@]2(C(=O)N3CCN(c4ccc(F)cc4)CC3)CC[C@]3(C)C(CC[C@@H]4[C@@]5(C)CCC(=O)C(C)(C)C5CC[C@]43C)[C@@H]12 (stereo partly drawn) [Compound 1 of FIG. 1, 4-(4′-fluorophenylpiperazine-1-yl) amide betulonic acid]",,11 mm,,,melting point: 151 to 152 °C; growth inhibition effect [5]: growth inhibition effect only to Stenotrophomonas nitritireducens
"C=C(C)[C@@H]1CC[C@]2(C(=O)N3CCN(c4ccc(Cl)c(Cl)c4)CC3)CC[C@]3(C)C(CC[C@@H]4[C@@]5(C)CCC(=O)C(C)(C)C5CC[C@]43C)[C@@H]12 (stereo partly drawn) [Compound 2 of FIG. 1, 4-(3′,4′-dichlorophenylpiperazine-1-yl) amide betulonic acid]",,15 mm,,,"zone of inhibition at 1000 µg/mL ([1]; Brucella intermedia, KACC11952T, read-out: Antibacterial zone of inhibition (mm) O. intermedium): 14 mm; zone of inhibition at 1000 µg/mL ([3]; Stenotrophomonas maltophilia, KCTC1773T, read-out: Antibacterial zone of inhibition (mm) S. maltophila): 13 mm; zone of inhibition at 1000 µg/mL ([4]; Brucella anthropi, KCTC22833T, read-out: Antibacterial zone of inhibition (mm) O. anthropi): 15 mm; melting point: 182 to 183 °C; activity (ranking among the samples) [5]: highest"
"C=C(C)[C@@H]1CC[C@]2(C(=O)N3CCN(c4ccccn4)CC3)CC[C@]3(C)[C@H](CC[C@@H]4[C@@]5(C)CCC(=O)C(C)(C)[C@@H]5CC[C@]43C)[C@@H]12 [Compound 4 of FIG. 1, 4-(2-pyridylpiperazine-1-yl) amide betulonic acid]",10 mm,,10 mm,,
"C=C(C)C1CCC2(C(=O)N3CCN(c4ncccn4)CC3)CCC3(C)C(CCC4C5(C)CCC(=O)C(C)(C)C5CCC43C)C12 (stereo not drawn) [Compound 5 of FIG. 1, 4-(2-pyrimidylpiperazine-1-yl) amide betulonic acid]",10 mm,11 mm,10 mm,13 mm,
"C=C(C)[C@@H]1CC[C@]2(C(=O)N3CCN(c4ccc(C(F)(F)F)cc4)CC3)CC[C@]3(C)C(CC[C@@H]4[C@@]5(C)CCC(=O)C(C)(C)C5CC[C@]43C)[C@@H]12 (stereo partly drawn) [Compound 6 of FIG. 1, 4-(4′-trifluoromethylphenylpiperazine-1-yl) amide betulonic acid]",,,,,activity (ranking among the samples) [5]: highest
gentamicin [reference compound],17 mm,21 mm,16 mm,19 mm,
